# According to US20230183188A1, “ENPP1 MODULATORS AND USES THEREOF” (Vir Biotechnology, Inc., priority 2020, published 2023):
# Target: T1, recombinant protein containing the human ENPP1 enzymatic domain (Homo sapiens, UniProt P22413)
# T1 construct: recombinant protein containing the human ENPP1 enzymatic domain; purchased R&D Systems 6136-EN-010
# T1 sequence (P22413 191-591 limits assumed): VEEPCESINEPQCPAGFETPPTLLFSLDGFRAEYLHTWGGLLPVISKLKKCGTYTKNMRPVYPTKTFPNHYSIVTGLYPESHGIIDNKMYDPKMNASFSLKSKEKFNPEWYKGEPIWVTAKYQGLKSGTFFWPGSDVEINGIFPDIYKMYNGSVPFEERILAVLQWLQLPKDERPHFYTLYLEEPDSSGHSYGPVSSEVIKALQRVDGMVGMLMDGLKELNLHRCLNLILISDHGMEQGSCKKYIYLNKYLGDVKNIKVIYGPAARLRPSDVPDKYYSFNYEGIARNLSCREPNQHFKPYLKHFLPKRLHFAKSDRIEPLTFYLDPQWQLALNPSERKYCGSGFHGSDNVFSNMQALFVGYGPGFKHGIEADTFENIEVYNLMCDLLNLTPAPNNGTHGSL
# Experiment: ENPP1 Enzymatic Inhibition Assay (2′3′-cGAMP substrate, AMP-Glo luminescence)
# Type: biochemical
# Conditions: 1 nM ENPP1, 20 uM 2′3′-cGAMP substrate, 30 minutes at 37° C.
# Experimental: The inhibition of ENPP1's phosphodiesterase activity were tested in a purified enzymatic assay using 2′3′-cyclic GAMP as a substrate which allowed for the release of cleaved AMP to be monitored using a luminescent assay.
# Putative inhibitors were diluted in assay buffer (50 mM Tris pH 8.0, 250 mM NaCl, 0.5 mM CaCl2, 1 uM ZnCl2, 1% DMSO) and pre-incubated for 15 minutes at 37° C. with recombinant protein containing the human ENPP1 enzymatic domain (R&D Systems cat. #6136-EN-010). The enzymatic reaction was initiated upon addition of the 2′3′-cGAMP substrate. The final reaction concentrations were 1 nM ENPP1 and 20 uM 2′3′-cGAMP substrate in a 25 uL volume. Inhibitor concentrations ranged from 10 uM to 0.2 nM. The reaction was incubated for 30 minutes at 37° C.
# After reacting for 30 minutes, the amount of AMP generated from the cleavage of 2′3′-cGAMP was determined using the Promega AMP-Glo method according to the manufacturer's protocol. First, AMP-Glo reagent 1 was added and incubated with the reaction mix for 1 hour at room temperature. Second, AMP Detection solution was added and the mixture was incubated for an additional hour. The luminescence of the mixture was read on a Perkin Elmer Ensight plate reader.
# The maximum and minimum levels of ENPP1 activity were established using no inhibitor and no enzyme controls, respectively. The activity observed using ENPP1 inhibitors was quantified as the percent of activity relative to these controls. IC50 values were calculated using GraphPad Prism by fitting a sigmoidal variable slope nonlinear regression model to the data.
row,SMILES,IC50 [nM]
1,"COc1ccc2c(Oc3ccc(S(=N)(=O)N(C)C)cc3)ccnc2c1 (stereo not shown) [Compound 32, 4-((7-methoxyquinolin-4-yl)oxy)-N, N-dimethylbenzenesulfonimidamide]",> 100
2,"COc1ccc2c(Oc3ccc(S(N)(=O)=NC4(c5ccccn5)CC4)cc3)ccnc2c1 (stereo not shown) [Compound 33, 4-((7-methoxyquinolin-4-yl)oxy)-N′-(1-(pyridin-2-yl)cyclopropyl)benzenesulfonimidamide]",< 10
3,"COc1ccc2c(Oc3ccc(S(N)(=O)=NCCOc4ccccc4)cc3)ccnc2c1 (stereo not shown) [Compound 34, 4-((7-methoxyquinolin-4-yl)oxy)-N′-(2-phenoxyethyl)benzenesulfonimidamide]",10 to 100
4,"COc1ccc2c(Oc3ccc(S(N)(=O)=NCc4ccc(-c5ccncc5)cc4)cc3)ccnc2c1 (stereo not shown) [Compound 35, 4-((7-methoxyquinolin-4-yl)oxy)-N′-(4-(pyridin-4-yl)benzyl)benzenesulfonimidamide]",< 10
5,"COc1ccc2c(Oc3ccc(S(N)(=O)=NCC4CCC4)cc3)ccnc2c1 (stereo not shown) [Compound 36, N′-(cyclobutylmethyl)-4-((7-methoxyquinolin-4-yl)oxy)benzenesulfonimidamide]",< 10
6,"COc1ccc2c(Oc3ccc(S(N)(=O)=NCC(F)(F)F)cc3)ccnc2c1 (stereo not shown) [Compound 37, 4-((7-methoxyquinolin-4-yl)oxy)-N′-(2,2,2-trifluoroethyl)benzenesulfonimidamide]",< 10
7,"COc1ccc2c(Oc3ccc(S(N)(=O)=Nc4ccc(-c5ccncc5)cc4)cc3)ccnc2c1 (stereo not shown) [Compound 38, 4-((7-methoxyquinolin-4-yl)oxy)-N′-(4-(pyridin-4-yl)phenyl)benzenesulfonimidamide]",10 to 100
8,"COc1ccc2c(Oc3ccc(S(N)(=O)=NCCNC(=O)OC(C)(C)C)cc3)ccnc2c1 (stereo not shown) [Compound 39, tert-butyl (2-((amino(4-((7-methoxyquinolin-4-yl)oxy)phenyl)(oxo)-λ^6-sulfaneylidene)amino)ethyl) carbamate]",10 to 100
9,"COc1ccc2c(Oc3ccc(S(N)(=O)=NCCN)cc3)ccnc2c1 (stereo not shown) [Compound 40, N′-(2-aminoethyl)-4-((7-methoxyquinolin-4-yl)oxy)benzenesulfonimidamide]",10 to 100
10,"COc1ccc2c(Oc3ccc(S(N)(=O)=NCCNC(C)=O)cc3)ccnc2c1 (stereo not shown) [Compound 41, N-(2-((amino(4-((7-methoxyquinolin-4-yl)oxy)phenyl)(oxo)-I^6-sulfaneylidene)amino)ethyl)acetamide]",< 10
11,"COc1ccc2c(Nc3ccc(S(=N)(=O)N(C)C)cc3)ncnc2c1 (stereo not shown) [Compound 42, 4-((7-methoxyquinazolin-4-yl)amino)-N,N-dimethylbenzenesulfonimidamide]",10 to 100
12,"COc1ccc2c(Oc3ccc(S(N)(=O)=NC[C@@H]4CCCN4C(=O)OC(C)(C)C)cc3)ccnc2c1 (stereo partly drawn) [Compound 43, tert-butyl (2S)-2-(((amino(4-((7-methoxyquinolin-4-yl)oxy)phenyl)(oxo)-I^6-sulfaneylidene)amino)methyl) pyrrolidine-1-carboxylate]",10 to 100
13,"COc1ccc2c(Oc3ccc(S(N)(=O)=NC[C@@H]4CCCN4)cc3)ccnc2c1 (stereo partly drawn) [Compound 44, 4-((7-methoxyquinolin-4-yl)oxy)-N′-(((S)-pyrrolidin-2-yl)methyl)benzenesulfonimidamide]",10 to 100
